These results are taken from patent US12030903B2, “Antiviral compounds” (Gilead Sciences, Inc., priority 2020, dated 2024).

Like-named read-outs stand apart in the source and are kept apart here. Some results are limits rather than exact numbers.

The subject of data set [1] is Dengue serotype 2 New Guinea C (NGC) strain. In words: DENV-2 Huh-7 EC50 (qPCR of viral RNA in infected Huh7 cells). The data set is classed as cell-based. The settings on record: MOI=0.1, 48 hours. The procedure, abridged:
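Huh7 cells were infected 2 h at 37 °C with DENV-2 NGC at MOI 0.1, then plated with graded compound doses (0.25% DMSO) in triplicate for 48 h. Viral RNA was quantified by duplex TaqMan qPCR against GAPDH. EC50 was normalized to positive and no-compound controls.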
Background: In qPCR the cycle at which signal appears reflects the starting amount.

In data set [2] the test system is Human hepatocarcinoma 7 (Huh7) cells. In words: Huh-7 CC50 (CellTiter Glo viability). In kind it is cell-based. The conditions noted are these: 48 hours. The procedure, abridged: (§1)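 Huh7 cells in 10% FCS DMEM plated at 1-2×10^4 per well in triplicate with graded compound doses, 0.25% DMSO throughout. Viability after 48 hours by CellTiter Glo luminescence, normalized to no-compound and no-cell controls; CC50 from curve fitting.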

In the next data set the test system is RSV strain A2. In words: RSV HEp-2 EC50 (infectious cytopathic cell protection assay). In kind it is cell-based, RSV strain A2; HEp-2 cells. The settings on record: read-out: RSV Hep-2 EC50. The procedure, abridged:
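HEp-2 cells (50,000/mL) infected with titered RSV stock, added onto compound in 3-fold serial dilutions; 4 days at 37 °C. Cell viability read by CellTiter-Glo luminescence; percent inhibition of virus-induced cytopathic effect derived from remaining viability against 0% and 100% inhibition controls.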
On the technique in general: Damage to the host cells serves as the signal in cytopathic effect assays.

Another data set has as its system uninfected HEp-2 cells. Kind of data set: HEp-2 CC50 (cytotoxicity in uninfected HEp-2 cells). The data set is classed as cell-based. The conditions noted are these: 4 days, CellTiter Glo. The method, then:
(§2) Instead, an uninfected cell mixture at the same density is added at 20 uL/well to plates containing prediluted compounds, also at 100 nL/sample. Assay plates are then incubated for 4 days followed by a cell viability test using the same CellTiter Glo reagent addition and measurement of luminescent readouts. Untreated cell and cells treated at 2 μM puromycin (Sigma, St. Louis, MO) serve as 100% and 0% cell viability control, respectively.
Background: In ATP-based viability assays light output follows the ATP content of the culture.

In data set [3] the test system is Dengue 2, New Guinea strain (NGC). In words: DENV-2 moDC EC50 (qPCR of viral RNA in infected moDCs). The data set is classed as cell-based, New Guinea strain (NGC); human moDCs. The settings on record: human moDCs infected with Dengue 2 NGC, MOI=0.1, 48 hours. The procedure, abridged: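 moDCs differentiated 7 days from CD14+ monocytes with GM-CSF/IL-4, infected with Vero-derived DENV-2 NGC at MOI 0.1 for 2 h at 37 °C, then plated in triplicate with graded compound doses (0.25% DMSO). At 48 h viral RNA quantified by duplex TaqMan qPCR against GAPDH; EC50 normalized to positive and no-compound controls.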

Data set [4] has as its system Human monocyte-derived dendritic cells (moDCs). In words: moDC CC50 (CellTiter Glo viability). The conditions noted are these: uninfected moDCs, 48 hours. In kind it is cell-based.
A short description of data set [5]: moDC CC50 (CellTiter Glo viability). In kind it is cell-based, Human. The conditions noted are these: human, uninfected moDCs.
Data set [6] is described as follows: Huh-7 CC50 (CellTiter Glo viability). The data set is classed as cell-based, Human. The conditions noted are these: human, Huh7 hepatocarcinoma cells. The procedure, abridged: as §1
A short description of data set [7]: HEp-2 CC50 (cytotoxicity in uninfected HEp-2 cells). The settings on record: human, CellTiter Glo. In kind it is cell-based. The method, then:
as §2

[8] abbreviates: Huh7 cells infected with Dengue serotype 2 NGC.
[9] abbreviates: HEp-2 cells infected with RSV A2, 4 days, Cell TiterGlo.

As to `CCOC(=O)[C@H](C)NP(=O)(OC[C@@]1(CF)O[C@@H](c2ccc3c(N)ncnn23)[C@H](O)[C@@H]1O)Oc1ccc(C(C)(C)C)cc1` (single isomer, unassigned) [Example 48], the values for the EC50 (in [1] (setting [8]); in the data set with RSV strain A2 (setting [9])) were 390 nM and 215 nM, respectively. Moreover, the 50% cytotoxic concentration (CC50) in data set [2] is 15400 nM; in the data set on uninfected HEp-2 cells it was 30200 nM.
The matching figures for `CCOC(=O)[C@H](C)NP(=O)(OC[C@@]1(CF)O[C@@H](c2ccc3c(N)ncnn23)[C@H](O)[C@@H]1O)Oc1ccc(C(C)(C)C)cc1` (single isomer, unassigned) [Example 49]: 334 nM, 225 nM, over 25000 nM and over 100000 nM.
`C[C@H](NP(=O)(OC[C@@]1(CF)O[C@@H](c2ccc3c(N)ncnn23)[C@H](O)[C@@H]1O)Oc1ccccc1)C(=O)OCC(C)(C)C(F)(F)F` (single isomer, unassigned) [Example 54]: the EC50 worked out at 241 nM in data set [3], 409 nM in [1] (setting [8]) and 180 nM in the data set with RSV strain A2 (setting [9]). Further, the CC50 is 3260 nM in data set [4], over 25000 nM in [2] and over 100000 nM in the data set with uninfected HEp-2 cells.
For the compound `C[C@H](NP(=O)(OC[C@@]1(CF)O[C@@H](c2ccc3c(N)ncnn23)[C@H](O)[C@@H]1O)Oc1ccccc1)C(=O)OCC(C)(C)C(F)(F)F` (single isomer, unassigned) [Example 55], the EC50 was found to be 103 nM in data set [3], 611 nM in data set [1] (setting [8]) and 150 nM with RSV strain A2 (setting [9]). Besides, the CC50 was 4180 nM in data set [4], over 25000 nM in data set [2] and over 100000 nM in the data set on uninfected HEp-2 cells.
With `CC(=O)O[C@H]1[C@H](c2ccc3c(N)ncnn23)O[C@](CF)(COP(=O)(N[C@@H](C)C(=O)OC2CCCCC2)Oc2ccccc2)[C@H]1OC(C)=O` (stereo partly drawn) [Example 15, (2R,3S,4S,5S)-5-(4-aminopyrrolo[2,1-f][1,2,4]triazin-7-yl)-2-((((((S)-1-(cyclohexyloxy)-1-oxopropan-2-yl)amino)(Phenoxy)phosphoryl)oxy)methyl)-2-(fluoromethyl)tetrahydrofuran-3,4-diyl diacetate], the EC50 in data set [1] (setting [8]) is 1630 nM; with RSV strain A2 (setting [9]) it was 1460 nM. For the same compound, the figures for the CC50 (in data set [2]; in the data set on uninfected HEp-2 cells) were over 25000 nM and over 50000 nM, respectively.
As for `CCOC(=O)[C@H](C)NP(=O)(OC[C@@]1(CF)O[C@@H](c2ccc3c(N)ncnn23)[C@H](OC(=O)CC)[C@@H]1OC(=O)CC)Oc1ccccc1` (stereo partly drawn) [Example 25, (2R,3S,4S,5S)-5-(4-aminopyrrolo[2,1-f][1,2,4]triazin-7-yl)-2-((((((S)-1-ethoxy-1-oxopropan-2-yl)amino)(Phenoxy)phosphoryl)oxy)methyl)-2-(fluoromethyl) tetrahydrofuran-3,4-diyl dipropionate], the half-maximal effective concentration (EC50) in data set [3] amounted to 213 nM; in [1] (setting [8]) it was 291 nM; in the data set on RSV strain A2 (setting [9]) it was 919 nM. For the same compound, the cytotoxic concentration (CC50) is over 25000 nM in [2] and 70000 nM in the data set on uninfected HEp-2 cells.
On to `CCC(=O)O[C@H]1[C@H](c2ccc3c(N)ncnn23)O[C@](CF)(COP(=O)(N[C@@H](C)C(=O)OC)Oc2ccccc2)[C@H]1OC(=O)CC` (stereo partly drawn) [Example 33, (2R,3S,4S,5S)-5-(4-aminopyrrolo[2,1-f][1,2,4]triazin-7-yl)-2-(fluoromethyl)-2-((((((S)-1-methoxy-1-oxopropan-2-yl)amino)(phenoxy)phosphoryl)oxy)methyl)tetrahydrofuran-3,4-diyl dipropionate], for which the half-maximal effective concentration (EC50) was 811 nM in [1] (setting [8]) and 1220 nM in the data set on RSV strain A2 (setting [9]). Besides, the results for the CC50 (in data set [2]; in the data set on uninfected HEp-2 cells) were over 25000 nM and 43300 nM, respectively.
For the compound `C[C@H](NP(=O)(OC[C@@]1(CF)O[C@@H](c2ccc3c(N)ncnn23)[C@H](O)[C@@H]1O)Oc1ccccc1)C(=O)OC1CCC1` (stereo partly drawn) [Example 71, cyclobutyl ((((2R,3S,4R,5S)-5-(4-aminopyrrolo[2,1-f][1,2,4]triazin-7-yl)-2-(fluoromethyl)-3,4-dihydroxytetrahydrofuran-2-yl)methoxy)(phenoxy)phosphoryl)-L-alaninate], the 50% effective concentration (EC50) was 143 nM in data set [3] (Dengue virus); 298 nM in [1] (Dengue virus, DENV2, Huh-7, Huh7 cells infected with Dengue serotype 2 NGC); 290 nM with RSV strain A2 (human respiratory syncytial virus, HEp-2, 96 h). Also, the CC50 at 48 h is 8800 nM in data set [5] and 13000 nM in data set [6]. Moreover, the CC50 at 4 days in data set [7] is over 100000 nM.

The EC50 is the concentration needed to bring the measured effect to its halfway point. As a reminder, the CC50 is the concentration that lowers cell viability or growth by half. Low values mean harm at low concentration, high ones better tolerance by the cells.
